Assay results reported in ChEMBL document CHEMBL1154287, “Phenylaminopyrimidines as inhibitors of Janus kinases (JAKs)” (Bioorg Med Chem Lett, 2009).

Tests used:
[1] = Blood clearance in Sprague-Dawley rat at 21 mg/kg, iv; format: ADME, organism-based; parameters: dose 21 mg/kg, route intravenous
BaF3 [2] = assay: cells; conditions: Mus musculus, BaF3, 72 h
Description: Antiproliferative activity against mouse BAF3 cells expressing TEL-JAK3 kinase after 72 hrs by alamar blue assay

[3] = Oral bioavailability in Sprague-Dawley rat at 21 mg/kg; format: ADME, organism-based; conditions: in vivo
in vitro [4] = conditions: human, Caco-2
Description: Ratio of permeability from apical to basolateral side over basolateral to apical side in human Caco-2 cells

[5] = Apparent permeability from basolateral to apical side in human Caco-2 cells; format: ADME, cell-based
[6] = target: T1, Tyrosine-protein kinase JAK3 (Homo sapiens, UniProt P52333)
T1 sequence (P52333 whole entry): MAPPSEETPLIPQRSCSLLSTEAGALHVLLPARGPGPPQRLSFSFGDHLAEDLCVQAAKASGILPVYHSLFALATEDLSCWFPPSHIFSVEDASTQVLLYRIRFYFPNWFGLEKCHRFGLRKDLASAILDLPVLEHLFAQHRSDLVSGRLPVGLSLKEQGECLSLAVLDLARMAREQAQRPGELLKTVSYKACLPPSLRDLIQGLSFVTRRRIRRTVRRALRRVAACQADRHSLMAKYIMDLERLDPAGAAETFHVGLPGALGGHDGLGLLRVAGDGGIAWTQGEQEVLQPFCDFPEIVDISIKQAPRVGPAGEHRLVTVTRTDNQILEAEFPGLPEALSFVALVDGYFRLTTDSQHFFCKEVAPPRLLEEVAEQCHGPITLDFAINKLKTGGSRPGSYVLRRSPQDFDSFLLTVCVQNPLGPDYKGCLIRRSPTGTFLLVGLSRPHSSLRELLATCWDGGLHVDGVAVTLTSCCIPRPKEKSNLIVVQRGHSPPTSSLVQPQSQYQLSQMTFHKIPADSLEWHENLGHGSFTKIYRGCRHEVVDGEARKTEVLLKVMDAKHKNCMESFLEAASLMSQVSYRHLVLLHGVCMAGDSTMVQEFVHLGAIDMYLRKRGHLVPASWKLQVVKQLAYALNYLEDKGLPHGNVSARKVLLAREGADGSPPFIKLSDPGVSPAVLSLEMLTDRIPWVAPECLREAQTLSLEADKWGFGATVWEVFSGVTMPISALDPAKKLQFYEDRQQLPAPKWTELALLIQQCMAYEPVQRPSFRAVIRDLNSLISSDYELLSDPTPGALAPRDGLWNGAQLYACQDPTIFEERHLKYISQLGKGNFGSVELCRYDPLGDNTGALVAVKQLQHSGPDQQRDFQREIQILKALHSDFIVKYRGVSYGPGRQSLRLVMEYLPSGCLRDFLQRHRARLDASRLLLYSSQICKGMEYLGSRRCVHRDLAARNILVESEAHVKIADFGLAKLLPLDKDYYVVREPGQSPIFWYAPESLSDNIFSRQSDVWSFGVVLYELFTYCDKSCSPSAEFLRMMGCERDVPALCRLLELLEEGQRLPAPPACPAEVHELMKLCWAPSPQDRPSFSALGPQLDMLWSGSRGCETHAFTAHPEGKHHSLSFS
Description: Inhibition of GST-tagged JAK3 kinase

cells = conditions: Mus musculus, CTLL-2, 72 h
Description: Antiproliferative activity against IL-2-stimulated mouse CTLL-2 cells expressing JAK1/JAK3 after 72 hrs by alamar blue assay

[7] = target: Tyrosine-protein kinase JAK2 (Homo sapiens, UniProt O60674)
Tyrosine-protein kinase JAK2, sequence (O60674 whole entry): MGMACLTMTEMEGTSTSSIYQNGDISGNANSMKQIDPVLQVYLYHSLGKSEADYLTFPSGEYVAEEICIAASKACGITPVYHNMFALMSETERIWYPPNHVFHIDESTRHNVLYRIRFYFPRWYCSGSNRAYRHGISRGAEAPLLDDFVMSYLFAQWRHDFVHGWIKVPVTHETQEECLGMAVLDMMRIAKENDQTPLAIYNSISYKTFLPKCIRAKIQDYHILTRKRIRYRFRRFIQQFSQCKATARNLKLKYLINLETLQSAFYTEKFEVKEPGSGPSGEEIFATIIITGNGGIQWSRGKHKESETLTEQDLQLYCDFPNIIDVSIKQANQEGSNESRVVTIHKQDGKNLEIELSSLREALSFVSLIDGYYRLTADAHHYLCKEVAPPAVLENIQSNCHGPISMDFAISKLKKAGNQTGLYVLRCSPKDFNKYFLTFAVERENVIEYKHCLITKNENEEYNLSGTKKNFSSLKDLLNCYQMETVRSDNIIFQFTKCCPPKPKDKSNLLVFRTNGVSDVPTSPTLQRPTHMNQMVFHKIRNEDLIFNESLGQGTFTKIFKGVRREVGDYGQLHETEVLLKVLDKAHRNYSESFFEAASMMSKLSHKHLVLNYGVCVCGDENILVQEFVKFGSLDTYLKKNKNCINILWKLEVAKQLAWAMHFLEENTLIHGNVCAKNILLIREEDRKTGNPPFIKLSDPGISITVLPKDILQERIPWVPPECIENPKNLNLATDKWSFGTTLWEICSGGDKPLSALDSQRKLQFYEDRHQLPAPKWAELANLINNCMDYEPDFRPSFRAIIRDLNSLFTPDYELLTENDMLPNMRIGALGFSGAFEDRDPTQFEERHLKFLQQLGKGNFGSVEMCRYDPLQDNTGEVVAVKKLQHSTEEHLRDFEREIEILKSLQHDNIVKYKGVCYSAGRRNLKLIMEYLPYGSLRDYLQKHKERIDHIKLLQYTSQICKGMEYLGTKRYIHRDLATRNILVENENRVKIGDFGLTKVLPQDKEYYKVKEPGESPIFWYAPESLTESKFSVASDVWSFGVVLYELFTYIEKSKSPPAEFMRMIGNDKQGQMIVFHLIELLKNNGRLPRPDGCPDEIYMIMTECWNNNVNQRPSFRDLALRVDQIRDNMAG
Description: Inhibition of GST-tagged JAK2 kinase

BaF3 [8] = assay: cells; conditions: Mus musculus, BaF3, 72 h; remark: listed apart in the source
Description: Antiproliferative activity against mouse BAF3 cells expressing TEL-JAK2 kinase after 72 hrs by alamar blue assay

in vitro [9] = conditions: human, Caco-2; remark: listed apart in the source
Description: Apparent permeability from apical to basolateral side in human Caco-2 cells

[10] = Cmax in Sprague-Dawley rat at 21 mg/kg; format: ADME, organism-based; parameters: dose 21 mg/kg; conditions: in vivo

clearance [1]: 2.2 L/h/kg | IC50 (BaF3 [2]): 3.56 µM | bioavailability [3]: 5.4% | efflux ratio (in vitro [4]): 12.3 | Papp B→A [5]: 564 nm/s | IC50 [6]: 0.587 µM | IC50 (cells): 2.22 µM | IC50 [7]: 0.002 µM | IC50 (BaF3 [8]): 0.802 µM | Papp A→B (in vitro [9]): 46 nm/s | Cmax [10]: 0.27 µM
Compound: CS(=O)(=O)Nc1ccc(-c2ccnc(Nc3ccc(CN4CCS(=O)(=O)CC4)cc3)n2)cc1
